From PubChem BioAssay (NCI) come the findings set out here.

“And” between values parts separate entries of the source, which are not always exact repeats. Equal entries are not always repeated.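 Results reflect a 48-hour exposure of cells in 96-well plates to compound at five concentrations. GI50 is the concentration that inhibits growth by half. TGI denotes the concentration required for complete inhibition of growth.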 Where a SMILES comes first, the peptide text is derived from it. [ ]: non-standard residue; d: D form. The star is where a group is joined. NMeAc5c = CNC1(C(=O)O)CCCC1; Boc = CC(C)(C)OC(=O)*; OBn = c1ccc(CO*)cc1 Some results are limits rather than exact numbers.

What all share (experiment): growth of human tumour cells (NCI), 48 h
The test system of assay [1] is NCI-H522 lung.
Assay [2] has as its system LOX IMVI melanoma.
Assay [3] relates to SW-620 colon.
Assay [4] relates to U251 CNS.
In assay [5] the test system is MDA-MB-435.
Assay [6] relates to SF-268 CNS.
Assay [7] has as its system COLO 205 colon.
Assay [8] has as its system NCI-H23 lung.
Assay [9] relates to PC-3 prostate.
Assay [10] deals with OVCAR-4 ovarian.

For `CC1CCC(n2c3cnccc3c3cnc(Nc4ccc5c(n4)CCN(C(=O)CO)C5)nc32)CC1` (stereo not given), the GI50 in assay [1] is > 100 µM; in assay [2], 0.496 µM; in [3], 0.278 µM; in [4] it was 0.478 µM; in [5], 0.66 µM. Further, the TGI in assay [1], in [2], in [3], in [4] and in assay [5] was > 100 µM throughout.
Consider `COc1ccc2c(c1)/C(=C/CCN(C)C)c1ccccc1S2`, for which the TGI was > 100 µM in [6]; > 100 µM in [2]; > 100 µM in assay [3]; 38 µM in assay [7]; > 100 µM in assay [4]; > 100 µM in [8]. The TGI in assay [5] and in assay [9] was > 100 µM in each case.
Take `CC(C)(C)OC(=O)N[C@H]1CCN(C2CCCCC2)C1=O`: the TGI in assay [6], in assay [2], in [3], in assay [7], in [4] and in assay [8] was > 100 µM each time. The TGI in [5] and in [9] was > 100 µM throughout.
Consider `CC(C)CCS(=O)(=O)OCCCCOS(=O)(=O)CCC(C)C`, for which the TGI in assay [1], in [6], in assay [2], in assay [3], in assay [7] and in assay [4] was > 100 µM throughout. In assay [8], the TGI is > 100 µM.
For `Cc1ccc(N=NC(=Nc2ccccc2)c2ccc(N(CCC#N)CCC#N)cc2)cc1`, the TGI in assay [1] was 45.2 µM; in [6] it was > 100 µM; in [10], > 100 µM; in [3], > 100 µM; in assay [7], > 100 µM; in [4], 71.2 µM. The values for the TGI in assay [8], in [5] and in assay [9] were 43.9 µM, > 100 µM and 59.9 µM, respectively.
Take `Cc1cn2c(/C=N/N=C(N)N)c(-c3cccc([N+](=O)[O-])c3)nc2s1`: the TGI in [1] was determined as 3.91 µM; in [6], 2.58 µM; in assay [10] it was 1.07 µM; in assay [2] it was 2.22 µM; in [3], 2.7 µM; in assay [4], 2.95 µM. Also, the results for the TGI in assay [8], in assay [5] and in [9] were 5.11 µM, 3.21 µM and 4.08 µM, respectively.
Turning to `COc1cccc(C(=O)O[C@H]2[C@@H]3[C@]4(OC(C)=O)CO[C@@H]4C[C@H](O)[C@@]3(C)C(=O)[C@H](OC(C)=O)C3=C(C)[C@@H](OC(=O)[C@H](O)[C@@H](NC(=O)OC(C)(C)C)c4ccco4)C[C@]2(O)C3(C)C)c1`, the TGI in assay [1] is 0.157 µM; in assay [6] it was > 37.5 µM; in assay [10] it was > 37.5 µM; in assay [2], > 15.6 µM; in assay [3], > 37.5 µM; in [7] it was 0.119 µM. Further, the results for the TGI in assay [4], in assay [8] and in assay [5] were > 16.6 µM, > 37.5 µM and 0.0909 µM, respectively.
`CN1C(=O)C2CCC(=O)N2c2cccnc21` (stereo not given): the TGI in assay [1], in assay [6], in assay [10], in [2], in assay [3] and in assay [7] was > 100 µM in each case. Also, the TGI in assay [4], in [8] and in assay [5] was > 100 µM throughout.
In the case of `CCOC(=O)c1csc(NC(=O)CN2CCOCC2)n1`, the TGI in [6], in assay [10], in assay [2], in [3], in assay [7] and in assay [4] was > 100 µM throughout. The TGI in [8], in assay [5] and in [9] was > 100 µM throughout.
In the case of `COc1ccc(-c2c(C#N)c(-c3ccc(C)cc3)n(NS(=O)(=O)c3ccc(C)cc3)c(=O)c2C#N)cc1`, the TGI in [1], in [6], in assay [10], in assay [2], in assay [3] and in assay [7] was > 100 µM in each case. Further, the TGI in [4], in assay [5] and in assay [9] was > 100 µM throughout.
`Nc1nc(SCCc2ccccc2)c2[nH]cnc2n1`: the TGI in [1], in assay [6], in [10], in [2], in assay [3] and in assay [4] was > 100 µM each time. The TGI in assay [8], in [5] and in assay [9] was > 100 µM throughout.
Take `O=[N+]([O-])c1ccc2c(c1)c(OCc1ccccc1)nn2Cc1ccccc1`: the TGI in [1], in assay [6], in [2], in [3], in [8] and in assay [5] was > 100 µM throughout. In [9], the TGI is > 100 µM.
Take `O=C1c2ccccc2-c2c1c1ccccc1c(=O)n2CCNCCNCCNCCn1c2c(c3ccccc3c1=O)C(=O)c1ccccc1-2`: the GI50 in assay [2] is 0.0709 µM; in [3] it was 0.194 µM; in assay [7] it was 1.76 µM; in assay [5], 0.993 µM; in assay [9], 0.373 µM. The TGI in assay [2] is 0.572 µM; in [3], > 100 µM; in assay [7], > 20.3 µM; in [5], 4.7 µM; in [9], 1.33 µM.
For the molecule `NC(=O)NCCCC(NC(=O)OCCCCn1ccc(=O)[nH]c1=O)C(=O)O` (stereo not given), the TGI in assay [6], in assay [10], in assay [2], in assay [3], in [7] and in assay [4] was > 100 µM each time. For the same molecule, the TGI in assay [8], in [5] and in assay [9] was > 100 µM each time.
As for `COC(=O)c1c(C)cccc1C1CN=NC12Cc1ccc(C)cc1C2=O` (stereo not given), the TGI in assay [1] is 91.9 µM; in assay [6], > 100 µM; in assay [10], > 100 µM; in assay [2] it was > 100 µM; in [3] it was > 100 µM; in [4], > 100 µM. The TGI in assay [8], in assay [5] and in assay [9] was > 100 µM each time.
For `CCCCC#C[I+]c1ccccc1`, the TGI in assay [1] was 15.5 µM; in assay [6] it was 39.7 µM; in assay [10] it was 28.9 µM; in assay [2] it was 26.9 µM; in assay [7], 28.7 µM; in [4] it was 29.9 µM. Further, the TGI in assay [8] is 27.3 µM.
Regarding `Cc1ccc(-c2n[nH]c(=O)n2N2C(=O)c3ccccc3C2=O)cc1`, the TGI in [1], in assay [6], in assay [2], in assay [3], in assay [4] and in assay [8] was > 100 µM each time. Further, the TGI in [5] and in [9] was > 100 µM throughout.
Take `O=C1CCCc2cc3c(cc21)CC1(Cc2ccccc2C1)C3`: the TGI in assay [1] was 21.5 µM; in assay [10], 63.9 µM; in assay [2] it was 28.6 µM; in [7] it was 5.11 µM; in assay [4], 64 µM; in assay [8], > 100 µM. Also, the TGI in assay [5] is 4.61 µM; in [9] it was > 100 µM.
For `Cc1c(O)c(O)cc[n+]1C1OC(CO)C(O)C1O` (stereo not given), the TGI in assay [1], in assay [6], in [10], in assay [2], in [3] and in assay [7] was > 100 µM in each case. In addition, the TGI in assay [4] and in assay [8] was > 100 µM in each case.
With `CN(C(=O)C(Cc1ccccc1)NC(=O)OC(C)(C)C)C1(C(=O)NC(Cc2ccccc2)C(=O)OCc2ccccc2)CCCC1` (stereo not drawn) (Boc-Phe-[NMeAc5c]-Phe-OBn; configuration not given here), the TGI is > 100 µM in assay [6]; > 100 µM in assay [10]; > 100 µM in assay [2]; > 100 µM in [3]; 52.3 µM in assay [7]; 51.1 µM in assay [4]. Moreover, the TGI in assay [8], in [5] and in assay [9] was > 100 µM each time.
Regarding `C=C1C(=O)O[C@@H]2C(=O)[C@@H](C)CCC/C(C)=C/CC[C@@]3(C)O[C@@H]3C[C@@H]12`, the TGI was 25.2 µM in assay [1]; > 100 µM in [10]; 36.9 µM in assay [2]; 43.4 µM in assay [3]; 47.9 µM in assay [7]; > 100 µM in assay [4]. Moreover, the TGI in [8], in assay [5] and in [9] was > 100 µM throughout.
For the molecule `COc1cc(C(=O)N(C(=S)OCc2ccccn2)c2ccccc2)cc(OC)c1OC`, the TGI in assay [6], in assay [2], in assay [3], in [7], in assay [4] and in assay [8] was > 100 µM each time. Moreover, the TGI in [5] and in assay [9] was > 100 µM each time.
For the molecule `O=c1ccc(-c2ccccc2)n[nH]1`, the TGI in assay [1], in assay [6], in assay [10], in assay [2], in assay [3] and in [4] was > 100 µM each time. The TGI in assay [8], in assay [5] and in [9] was > 100 µM each time.
On to `COc1cc2c(c(OC)c1OC)C(=O)[C@@H]1[C@H]2N1C(N)=O`, for which the TGI in assay [1], in assay [6], in assay [2], in assay [3], in assay [7] and in assay [4] was > 100 µM each time. Moreover, the TGI in assay [8], in assay [5] and in assay [9] was > 100 µM in each case.
On to `O=C(NC(=O)c1ccccc1[N+](=O)[O-])Nc1ccc(Oc2ncc(Br)cn2)c(Cl)c1`, for which the TGI in assay [1] is 0.0378 µM and 0.198 µM; in [2], > 100 µM; in assay [7], 2.22 µM; in assay [4], > 64.4 µM; in [5], 0.0312 µM. The GI50 in [10] was 7.58 µM; in assay [2] it was < 0.0208 µM; in assay [3], < 0.0187 µM; in assay [7], < 0.0188 µM; in assay [4] it was < 0.0185 µM; in [8] it was < 0.0209 µM.
For `ClCCN1CCC2(CC1)SSC1(CCN(CCCl)CC1)S2`, the TGI is 30.9 µM in [6]; > 100 µM in [10]; > 100 µM in [2]; > 100 µM in assay [3]; 41.2 µM in [7]; > 100 µM in assay [4]. Besides, the TGI in assay [8], in [5] and in assay [9] was > 100 µM in each case.
As to `COc1ccc(C2CC(c3c(O)ccc4ccccc34)=NN2C(C)=O)cc1OC` (stereo not given), the TGI in assay [1] was > 100 µM; in [6], > 100 µM; in assay [10] it was > 100 µM; in assay [3], > 100 µM; in assay [7] it was 42.8 µM; in assay [4], > 100 µM. Besides, the results for the TGI in assay [8], in assay [5] and in assay [9] were 79 µM, 69.2 µM and > 100 µM, respectively.
Consider `O=C(CCN1CCCCC1)C(=Cc1ccccc1)C(=O)CCN1CCCCC1`, for which the GI50 was 15.1 µM in assay [1]; 5.88 µM in assay [6]; 3.39 µM in assay [2]; 1.76 µM in [3]; 2.62 µM in [7]; 3.04 µM in assay [4]. Besides, the TGI is > 100 µM in assay [6]; > 100 µM in assay [10]; > 100 µM in [2]; > 76.4 µM in assay [7]; > 100 µM in [4]; > 100 µM in [8].
For `CCC(C(=O)O)c1ccc(OC)cc1` (stereo not given), the TGI in assay [1], in assay [6], in [10], in assay [2], in [3] and in [7] was > 100 µM each time. Also, the TGI in assay [4] and in assay [8] was > 100 µM in each case.
